From article PMC10922478 (Environmental research, 2023)

Key:
[1] = Stable isotope tracing in mouse urine after i.p. limonene or limonene-d5; conditions: after limonene / limonene-d5 66.8 mg/kg i.p.; overnight urine
[2] = format: in vivo; conditions: human urine after limonene inhalation
[3] = ref Falk-Filipsson et al., 1993; cited from earlier work

| Structure (SMILES) | Detection in mouse urine [1] | Observed Tmax ([2]; creatinine-normalized peak response) | Elimination t1/2 ([2]; pseudo one-compartment model) | Ka (first-order urinary generation rate constant) ([2]; pseudo one-compartment model) | Ke (first-order urinary elimination rate constant) ([2]; pseudo one-compartment model) | Half-life in blood (t1/2α) [3] |
| --- | --- | --- | --- | --- | --- | --- |
| C=C(C)C1CCC(C(=O)O)CC1 (stereo not drawn) [LM1, DHPA] | absent | 1 h | 1.01 ± 0.40 h | 0.93 ± 0.37 h⁻¹ | 0.68 ± 0.27 h⁻¹ |  |
| C=C(C)[C@H]1CC=C(C)CC1 [Limonene] |  |  |  |  |  | ~ 3 min |
